The source of these data is patent publication US10144746B2 (GLOBAL BLOOD THERAPEUTICS, INC., priority 2015, dated 2018).

Human plasma kallikrein, sequence (P03952 391-638): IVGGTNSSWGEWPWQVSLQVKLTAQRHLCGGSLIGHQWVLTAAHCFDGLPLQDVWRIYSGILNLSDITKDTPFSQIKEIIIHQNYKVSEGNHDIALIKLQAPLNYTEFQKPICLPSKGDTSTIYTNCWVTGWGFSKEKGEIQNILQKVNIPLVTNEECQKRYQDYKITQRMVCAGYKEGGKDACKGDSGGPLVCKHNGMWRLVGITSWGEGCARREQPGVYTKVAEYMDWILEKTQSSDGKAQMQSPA
Human plasma kallikrein, sequence (P03952 20-390 partner): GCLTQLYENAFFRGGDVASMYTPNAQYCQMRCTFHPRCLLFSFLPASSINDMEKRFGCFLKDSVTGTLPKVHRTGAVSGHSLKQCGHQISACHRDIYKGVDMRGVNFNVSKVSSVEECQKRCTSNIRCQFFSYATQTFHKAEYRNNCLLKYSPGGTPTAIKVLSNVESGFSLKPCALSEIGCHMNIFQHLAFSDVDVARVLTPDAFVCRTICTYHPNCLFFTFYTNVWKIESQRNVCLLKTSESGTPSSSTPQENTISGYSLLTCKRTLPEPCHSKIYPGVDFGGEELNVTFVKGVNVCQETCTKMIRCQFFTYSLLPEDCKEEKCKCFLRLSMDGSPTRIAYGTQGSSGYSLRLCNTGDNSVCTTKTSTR

The experiment concerns the target Human plasma kallikrein (Homo sapiens (Human), UniProt P03952). In words: In vitro plasma kallikrein inhibition assay (chromogenic substrate D-Pro-Phe-Arg-pNa, absorbance at 405 nm, IC50 determination). Type of experiment: biochemical. Conditions: read-out: KLKB1 pIC50 (converted). The procedure:
In Vitro Plasma Kallikrein Inhibition Assay
The chromogenic substrate D-Pro-Phe-Arg-pNa, 2HCl (BIOPHEN CS-31(02) from Hyphen BioMed, Neuville-Sur-oise, France) was dissolved in 5 mL deionized water and stored at 4° C. […] All other chemicals were of analytical grade.
A stock solution of 7 μM in 50% glycerol was stored at −20° C.
Enzyme reactions were conducted in “assay buffer” comprised of 20 mM HEPES at pH 7.4, 150 mM NaCl, 0.1% PEG-8000 and 0.01% Triton X-100.
Both enzyme and substrate were diluted in assay buffer.
Plate measurements were conducted using a SPECTROStar Nano reader (BMG Labtech, San Francisco, Calif., USA). […] We used discrete wavelength, precise, kinetic reads of 15 cycles with a 60 sec cycle time.
Determination of IC50 values
The test compound was dissolved in 100% DMSO. The compounds were serially diluted in DMSO in a 7 point dose response. For the assays, 66.5 μL of protease solution (protease in assay buffer) was added per well followed by the addition of 8.5 μL of compound in 100% DMSO. […] After 30 min. incubation at room temperature on an orbital shaker, the reactions were started by the addition of 10 μL substrate solution (in assay buffer, final assay concentration was 600 uM). After the addition of the substrate solution the final DMSO concentration was 10%. The plate was placed again on the shaker for 5 sec, spun at 2000 rpm for 5 sec and read on the spectrophotometer. […] The IC50 value was calculated from the plot of rate vs. inhibitor concentration by a 4 parameter logistic equation: y=A+((B−A)/([…]))
where y is the rate at the inhibitor concentration, x. A is the minimum y value at the highest inhibitor concentration and B is the y value in the absence of inhibitor, C is the IC50 value and D is the slope factor. The curve fitting was conducted with the non-linear regression routine of the analysis software XLfit (IDBS, version 5.3.1).
On to `COc1cc(N)nc(C)c1CNC(=O)c1ccc2c(c1)C1OC2c2ccc(Cn3cc(C)cn3)cc21` (racemic) [Example 132, (±)-N-[(6-amino-4-methoxy-2-methylpyridin-3-yl)methyl]-12-[(4-methyl-1H-pyrazol-1-yl)-methyl]-15-oxatetracyclo[6.6.1.0^2,^7.0^9,1^4]-pentadeca-2,4,6,9,11,13-hexaene-4-carboxamide], for which the IC50 is 2 nM.
To `CCOc1cc(N)nc(C)c1CNC(=O)c1ccc2c(c1)C1OC2c2ccc(Cn3cccn3)cc21` (racemic) [Example 133, (±)-N-[(6-amino-4-ethoxy-2-methylpyridin-3-yl)methyl]-12-[(1H-pyrazol-1-yl)methyl]-15-oxatetracyclo[6.6.1.0^2,^7.0^9,1^4] pentadeca-2,4,6,9,11,13-hexaene-4-carboxamide] belongs 11 nM.
Consider `CCOc1cc(N)nc(C)c1CNC(=O)c1ccc2c(c1)C1OC2c2ccc(Cn3cc(C)cn3)cc21` (racemic) [Example 134, (±)-N-[(6-amino-4-ethoxy-2-methylpyridin-3-yl)methyl]-12-[(4-methyl-1H-pyrazol-1-yl)methyl]-15-oxatetracyclo[6.6.1.0^2,^7.0^9,1^4]-pentadeca-2,4,6,9,11,13-hexaene-4-carboxamide], for which the IC50 is 2 nM.
The same measure for `CCc1cc(N)nc(C)c1CNC(=O)c1ccc2c(c1)C1OC2c2ccc(-c3ccc(F)cc3F)cc21` (racemic) [Example 135, (±)-N-[(6-amino-4-ethyl-2-methylpyridin-3-yl)methyl]-12-(2,4-difluorophenyl)-15-oxatetracyclo[6.6.1.0^2,^7.0^9,1^4] pentadeca-2,4,6,9,11,13-hexaene-4-carboxamide]: 19.5 nM.
In the case of `CCc1cc(N)nc(C)c1CNC(=O)c1ccc2c(c1)C1OC2c2ccc(-c3ccc(C)cc3C#N)cc21` (racemic) [Example 136, (±)-N-[(6-amino-4-ethyl-2-methylpyridin-3-yl)methyl]-12-(2-cyano-4-methylphenyl)-15-oxatetracyclo[6.6.1.0^2,^7.0^9,1^4] pentadeca-2,4,6,9,11,13-hexaene-4-carboxamide], the IC50 is 3.98 nM.
To `Cc1ccc(-c2ccc3c(c2)C2OC3c3ccc(C(=O)NCc4c(C)cc5c(c4C)CNC5)cc32)c(C#N)c1` (racemic) [Example 137, (±)-12-(2-cyano-4-methylphenyl)-N-[(4,6-dimethyl-2,3-dihydro-1H-isoindol-5-yl)methyl]-15-oxatetracyclo[6.6.1.0^2,^7.0^9,1^4] pentadeca-2,4,6,9,11,13-hexaene-4-carboxamide] belongs 437 nM; to `Cc1cc(N)nc(C)c1CNC(=O)c1ccc2c(c1)C1OC2c2ccc(-c3c(C)cc(F)cc3F)cc21` (racemic) [Example 141, (±)-N-[(6-amino-2,4-dimethlpyridin-3-yl)-methyl]-12-(2,4-difluoro-6-methylphenyl)-15-oxatetracyclo[6.6.1.0^2,^7.0^9,1^4] pentadeca-2,4,6,9,11,13-hexaene-4-carboxamide], 105 nM; to `CCc1cc(N)nc(C)c1CNC(=O)c1ccc2c(c1)C1OC2c2ccc(-c3c(C)cc(F)cc3F)cc21` (racemic) [Example 142, (±)-N-[(6-amino-4-ethyl-2-methylpyridin-3-yl)-methyl]-12-(2,4-difluoro-6-methylphenyl)-15-oxatetracyclo[6.6.1.0^2,^7.0^9,1^4] pentadeca-2,4,6,9,11,13-hexaene-4-carboxamide], 1620 nM.
The same measure for `Cc1ccc(-c2ccc3c(c2)C2OC3c3ccc(C(=O)NCc4c(F)cc5c(c4C)CNC5)cc32)c(C#N)c1` (racemic) [Example 143, (±)-12-(2-cyano-4-methylphenyl)-N-[(6-fluoro-4-methyl-2,3-dihydro-1H-isoindol-5-yl)methyl]-15-oxatetracyclo [6.6.1.0^2,^7.0^9,1^4]pentadeca-2,4,6,9,11,13-hexaene-4-carboxamide]: 288 nM.
To `Cc1cc(N)nc(C)c1CNC(=O)c1ccc2c(c1)C1OC2c2ccc(Oc3cccnc3)cc21` (racemic) [Example 144, (±)-N-[(6-amino-2,4-dimethylpyridin-3-yl)methyl]-12-(pyridin-3-yloxy)-15-oxatetracyclo[6.6.1.0^2,^7.0^9,1^4] pentadeca-2,4,6,9,11,13-hexaene-4-carboxamide] belongs 6310 nM; to `Cc1cc(N)nc(C)c1CNC(=O)c1ccc2c(c1)C1OC2c2ccc(-c3c(F)cc(F)cc3Cl)cc21` (racemic) [Example 146, (±)-N-[(6-amino-2,4-dimethylpyridin-3-yl)-methyl]-12-(2-chloro-4,6-difluorophenyl)-15-oxatetracyclo[6.6.1.0^2,^7.0^9,1^4] pentadeca-2,4,6,9,11,13-hexaene-4-carboxamide], 148 nM.
For the molecule `Cc1cc(CN)cc(C)c1CNC(=O)c1ccc2c(c1)C1OC2c2ccc(-c3ccc(F)cc3F)cc21` (racemic) [Example 147, (±)-N-{[4-(aminomethyl)-2,6-dimethylphenyl]-methyl}-12-(2,4-difluorophenyl)-15-oxatetracyclo[6.6.1.0^2,^7.0^9,1^4] pentadeca-2,4,6,9,11,13-hexaene-4-carboxamide], the IC50 was 372 nM.
To `Nc1nccc2c(CNC(=O)c3ccc4c(c3)C3OC4c4ccc(-c5ccc(F)cc5F)cc43)cccc12` (racemic) [Example 148, (±)-N-[(1-aminoisoquinolin-5-yl)methyl]-12-(2,4-difluorophenyl)-15-oxatetracyclo [6.6.1.0^2,^7.0^9,1^4]-pentadeca-2,4,6,9,11,13-hexaene-4-carboxamide] belongs 85.1 nM; to `Cc1cc(N)nc(C)c1CNC(=O)c1ccc2c(c1)C1OC2c2ccc(-n3ccc(=O)cc3)cc21` (racemic) [Example 149, (±)-N-[(6-amino-2,4-dimethylpyridin-3-yl]-methyl]-12-(4-oxo-1,4-dihydropyridin-1-yl)-15-oxatetracyclo[6.6.1.0^2,^7.0^9,1^4] pentadeca-2,4,6,9,11,13-hexaene-4-carboxamide], 5890 nM; to `COc1cc(N)nc(C)c1CNC(=O)c1ccc2c(c1)C1OC2c2ccc(-c3c(C)cc(F)cc3F)cc21` (racemic) [Example 150, (±)-N-[(6-amino-4-methoxy-2-methylpyridin-3-yl)methyl]-12-(2,4-difluoro-6-methylphenyl)-15-oxatetracyclo[6.6.1.0^2,^7.0^9,1^4] pentadeca-2,4,6,9,11,13-hexaene-4-carboxamide], 34.7 nM.
With `CCOc1cc(N)nc(C)c1CNC(=O)c1ccc2c(c1)C1OC2c2ccc(-c3c(C)cc(F)cc3F)cc21` (racemic) [Example 151, (±)-N-[(6-amino-4-ethoxy-2-methylpyridin-3-yl)-methyl]-12-(2,4-difluoro-6-methylphenyl)-15-oxatetracyclo[6.6.1.0^2,^7.0^9,1^4] pentadeca-2,4,6,9,11,13-hexaene-4-carboxamide], the IC50 is 195 nM.
To `COc1ccc(Oc2ccc3c(c2)C2OC3c3ccc(C(=O)NCc4c(C)cc(N)nc4C)cc32)cn1` (racemic) [Example 152, (±)-N-[(6-amino-2,4-dimethylpyridin-3-yl)-methyl]-12-[(6-methoxypyridin-3-yl)oxy]-15-(oxatetracyclo[6.6.1.0^2,^7.0^9,1^4]pentadeca-2,4,6,9,11,13-hexaene-4-carboxamide] belongs 1260 nM; to `Cc1cnn(Cc2ccc3c(c2)C2OC3c3ccc(C(=O)NCc4c(F)cc5c(c4C)CNC5)cc32)c1` (racemic) [Example 153, (±)-N-[(6-fluoro-4-methyl-2,3-dihydro-1H-isoindol-5-yl)methyl]-12-[(4-methyl-1H-pyrazol-1-yl)methyl]-15-oxatetracyclo[6.6.1.0^2,^7.0^9,1^4]-pentadeca-2,4,6,9,11,13-hexaene-4-carboxamide], 204 nM; to `Nc1nccc2ccc(CNC(=O)c3ccc4c(c3)C3OC4c4ccc(-c5ccc(F)cc5F)cc43)cc12` (racemic) [Example 154, (±)-N-[(1-aminoisoquinolin-7-yl)methyl]-12-(2,4-difluorophenyl)-15-oxatetracyclo [6.6.1.0^2,^7.0^9,1^4]-pentadeca-2,4,6,9,11,13-hexaene-4-carboxamide], 3720 nM.
In the case of `Nc1ncc(CNC(=O)c2ccc3c(c2)C2OC3c3ccc(-c4ccc(F)cc4F)cc32)c2ccccc12` (racemic) [Example 155, (±)-N-[(1-aminoisoquinolin-4-yl)methyl]-12-(2,4-difluorophenyl)-15-oxatetracyclo [6.6.1.0^2,^7.0^9,1^4]-pentadeca-2,4,6,9,11,13-hexaene-4-carboxamide], the IC50 is 4070 nM.
To `Cc1ccc(C#N)c(-c2ccc3c(c2)C2OC3c3ccc(C(=O)NCc4c(C)cc(N)nc4C)cc32)c1` (racemic) [Example 156, (±)-N-[(6-amino-2,4-dimethylpyridin-3-yl)-methyl]-12-(2-cyano-5-methylphenyl)-15-oxatetracyclo[6.6.1.0^2,^7.0^9,1^4] pentadeca-2,4,6,9,11,13-hexaene-4-carboxamide] belongs 93.3 nM.
